In patent US8680159B2, “Bradykinin 1 receptor modulating compounds” (Gruenenthal GmbH, priority 2010, dated 2014):

Columns and labels:
[1] = target: T1, B1R receptor of the rat (CHO K1 cells stably transfected with the B1R gene of the rat) (Rattus norvegicus, UniProt P97583); assay: Functional study on the bradykinin receptor 1 (B1R), Ca2+ fluorescence (Fluo-4) FLIPR/Novostar assay, rB1R cells; format: cell-based; settings: CHO-K1, 10 μM, read-out: % inhibition (rat B1R) at 10 μM
T1 construct: expressed in transfected cells; host or cells: CHO K1 cells (Chinese hamster ovary), stably transfected
T1 sequence (P97583 1-337): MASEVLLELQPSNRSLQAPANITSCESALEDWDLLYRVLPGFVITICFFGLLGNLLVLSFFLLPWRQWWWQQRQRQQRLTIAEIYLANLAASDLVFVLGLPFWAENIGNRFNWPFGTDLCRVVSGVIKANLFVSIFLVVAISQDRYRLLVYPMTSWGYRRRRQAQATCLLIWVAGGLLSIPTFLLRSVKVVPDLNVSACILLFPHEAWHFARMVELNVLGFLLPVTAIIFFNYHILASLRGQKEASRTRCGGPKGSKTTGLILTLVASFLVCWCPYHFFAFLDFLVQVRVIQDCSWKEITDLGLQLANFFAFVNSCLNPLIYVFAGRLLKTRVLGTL
Summary of the method: (§1)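 Ca2+ influx (Fluo-4, peak fluorescence, λex 488/λem 540 nm) was measured in CHO K1 lines expressing rat or human B1R. After a 10 μM test-compound pre-addition scoring % activation, cells received EC80 agonist: Des-Arg9-bradykinin for rat, Lys-Des-Arg9-bradykinin for human. Antagonism was expressed as % of maximum inhibition, with IC50 from varied concentrations.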

[2] = target: T2, human B1R receptor (CHO K1 cells stably transfected with the human B1R gene) (Homo sapiens, UniProt P46663); assay: Functional study on the bradykinin receptor 1 (B1R), Ca2+ fluorescence (Fluo-4) FLIPR/Novostar assay, hB1R cells; format: cell-based; settings: CHO-K1, read-out: % inhibition (human B1R) at 10 μM
T2 construct: expressed in transfected cells; host or cells: CHO K1 cells (Chinese hamster ovary), stably transfected
T2 sequence (P46663 1-353): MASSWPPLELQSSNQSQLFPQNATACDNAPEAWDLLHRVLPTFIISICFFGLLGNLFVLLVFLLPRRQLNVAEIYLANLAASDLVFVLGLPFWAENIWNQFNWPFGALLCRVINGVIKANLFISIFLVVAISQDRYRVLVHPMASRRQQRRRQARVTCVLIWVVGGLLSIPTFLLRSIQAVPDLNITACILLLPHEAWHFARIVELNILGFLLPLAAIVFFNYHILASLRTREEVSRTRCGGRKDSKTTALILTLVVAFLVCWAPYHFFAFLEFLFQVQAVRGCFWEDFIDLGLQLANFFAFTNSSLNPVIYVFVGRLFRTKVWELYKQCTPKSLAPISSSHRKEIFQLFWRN
Summary of the method: as §1

inhibition at 10 µM [1] [%]	inhibition at 10 µM [2] [%]	SMILES
77	91	Cc1cc(N2CCC(N(C)C(=O)c3ccc4c(c3)[C@H](N(C(=O)c3ccccc3Cl)C(C)C)CC4)CC2)nc(C)n1 [Example H-144, (3R)-3-[(2-Chloro-benzoyl)-isopropyl-amino]-N-[1-(2,6-dimethyl-pyrimidin-4-yl)-piperidin-4-yl]-N-methyl-2,3-dihydro-1H-indene-5-carboxylic acid amide]
106	100	CCN(C(=O)c1ccccc1Cl)[C@@H]1CCc2ccc(C(=O)N(C)C3CCN(c4cc(C)nc(C)n4)CC3)cc21 [Example H-145, (3R)-3-[(2-Chloro-benzoyl)-ethyl-amino]-N-[1-(2,6-dimethyl-pyrimidin-4-yl)-piperidin-4-yl]-N-methyl-2,3-dihydro-1H-indene-5-carboxylic acid amide]
99	89	CN(C(=O)c1ccc2c(c1)[C@H](N(C)C(=O)c1ccccc1Cl)CC2)C1CCN(c2ccncn2)CC1 [Example H-148, (3R)-3-[(2-Chloro-benzoyl)-methyl-amino]-N-methyl-N-(1-pyrimidin-4-yl-piperidin-4-yl)-2,3-dihydro-1H-indene-5-carboxylic acid amide]
101	100	Cc1cc(N2CCC(N(C)C(=O)c3ccc4c(c3)[C@H](N(C)C(=O)c3ccccc3Cl)CC4)CC2)nc(C)n1 [Example H-149, (3R)-3-[(2-Chloro-benzoyl)-methyl-amino]-N-[1-(2,6-dimethyl-pyrimidin-4-yl)-piperidin-4-yl]-N-methyl-2,3-dihydro-1H-indene-5-carboxylic acid amide]
98	89	CC(C)N(C(=O)c1ccccc1Cl)[C@@H]1CCc2ccc(C(=O)N(C)C3CCN(c4ccncc4)CC3)cc21 [Example H-150, (3R)-3-[(2-Chloro-benzoyl)-isopropyl-amino]-N-methyl-N-(1-pyridin-4-yl-piperidin-4-yl)-2,3-dihydro-1H-indene-5-carboxylic acid amide]
96	100	Cc1cc(N2CCC(N(C)C(=O)c3cc4c(cc3F)[C@H](NC(=O)c3ccccc3Cl)CC4)CC2)nc(C)n1 [Example H-151, (1R)-1-[(2-Chloro-benzoyl)amino]-N-[1-(2,6-dimethyl-pyrimidin-4-yl)-piperidin-4-yl]-6-fluoro-N-methyl-2,3-dihydro-1H-indene-5-carboxylic acid amide]
93	82	Cc1cc(N2CCC(N(C)C(=O)c3cc4c(cc3F)[C@H](NC(=O)c3ccccc3Cl)CC4)CC2)ncn1 [Example H-152, (1R)-1-[(2-Chloro-benzoyl)amino]-6-fluoro-N-methyl-N-[1-(6-methyl-pyrimidin-4-yl)-piperidin-4-yl]-2,3-dihydro-1H-indene-5-carboxylic acid amide]
101	100	CN(C(=O)c1ccc2c(c1)[C@H](N(C)C(=O)c1ccccc1Cl)CC2)C1CCN(c2ccncc2)CC1 [Example H-153, (3R)-3-[(2-Chloro-benzoyl)-methyl-amino]-N-methyl-N-(1-pyridin-4-yl-piperidin-4-yl)-2,3-dihydro-1H-indene-5-carboxylic acid amide]
104	62	CC(C)N(C(=O)c1ccccc1Cl)[C@@H]1CCc2cc(F)c(C(=O)N(C)C3CCN(c4ccncc4)CC3)cc21 [Example H-155, (3R)-3-[(2-Chloro-benzoyl)-isopropyl-amino]-6-fluoro-N-methyl-N-(1-pyridin-4-yl-piperidin-4-yl)-2,3-dihydro-1H-indene-5-carboxylic acid amide]
61	23	CC(C)N(C(=O)c1ccccc1Cl)[C@@H]1CCc2cc(C(=O)N(C)C3CCN(c4ccncc4)CC3)c(F)cc21 [Example H-158, (1R)-1-[(2-Chloro-benzoyl)isopropyl-amino]-6-fluoro-N-methyl-N-(1-pyridin-4-yl-piperidin-4-yl)-2,3-dihydro-1H-indene-5-carboxylic acid amide]

Continued, compound first:

SMILES	inhibition at 10 µM [1] [%]	inhibition at 10 µM [2] [%]
Cc1cc(N2CCC(N(C)C(=O)c3cc4c(cc3F)[C@H](N3Cc5cccc(Cl)c5C3=O)CC4)CC2)nc(C)n1 [Example H-142, (1R)-1-(4-Chloro-3-oxo-1,2-dihydro-isoindol-2-yl)-N-[1-(2,6-dimethyl-pyrimidin-4-yl)-piperidin-4-yl]-6-fluoro-N-methyl-2,3-dihydro-1H-indene-5-carboxylic acid amide]	98	99
Cc1cc(N2CCC(N(C)C(=O)c3cc4c(cc3F)[C@H](NC(=O)c3cc(C)on3)CC4)CC2)nc(C)n1 [Example H-143, N-[(1R)-5-[[1-(2,6-Dimethyl-pyrimidin-4-yl)-piperidin-4-yl]-methyl-carbamoyl]-6-fluoro-2,3-dihydro-1H-inden-1-yl]-5-methyl-isoxazole-3-carboxylic acid amide]	31	98
CN(C(=O)c1ccc2c(c1)[C@H](NC(=O)c1ccccc1Cl)CC2)C1CN(c2ccncc2)C1 [Example H-146, (3R)-3-[(2-Chloro-benzoyl)amino]-N-methyl-N-(1-pyridin-4-yl-azetidin-3-yl)-2,3-dihydro-1H-indene-5-carboxylic acid amide]	107	-1
CN(C(=O)c1ccc2c(c1)[C@H](NC(=O)c1ccccc1Cl)CC2)C1CCN(c2ccncn2)CC1 [Example H-147, (3R)-3-[(2-Chloro-benzoyl)amino]-N-methyl-N-(1-pyrimidin-4-yl-piperidin-4-yl)-2,3-dihydro-1H-indene-5-carboxylic acid amide]	107	99
CCN(C(=O)c1ccc2c(c1)[C@H](NC(=O)c1ccccc1Cl)CC2)C1CCN(c2ncnc3nc[nH]c23)CC1 [Example H-156, (3R)-3-[(2-Chloro-benzoyl)amino]-N-ethyl-N-[1-(7H-purin-6-yl)-piperidin-4-yl]-2,3-dihydro-1H-indene-5-carboxylic acid amide]	101	90
Cc1cc(N2CC(N(C)C(=O)c3ccc4c(c3)[C@H](NC(=O)c3ccccc3Cl)CC4)C2)ccn1 [Example H-160, (3R)-3-[(2-Chloro-benzoyl)amino]-N-methyl-N-[1-(2-methyl-pyridin-4-yl)-azetidin-3-yl]-2,3-dihydro-1H-indene-5-carboxylic acid amide]	109	100
Cc1cc(N2CC(N(C)C(=O)c3ccc4c(c3)[C@H](N3Cc5cccc(Cl)c5C3=O)CC4)C2)ccn1 [Example H-161, (3R)-3-(4-Chloro-3-oxo-1,2-dihydro-isoindol-2-yl)-N-methyl-N-[1-(2-methyl-pyridin-4-yl)-azetidin-3-yl]-2,3-dihydro-1H-indene-5-carboxylic acid amide]	111	99
Cc1cc(N2CCC(N(C)C(=O)c3ccc4c(c3)[C@H](NC(=O)c3ccccc3C)CC4)CC2)nc(C)n1 [Example H-162, (3R)-N-[1-(2,6-Dimethyl-pyrimidin-4-yl)-piperidin-4-yl]-N-methyl-3-[(2-methyl-benzoyl)amino]-2,3-dihydro-1H-indene-5-carboxylic acid amide]	105	100
Cc1cc(N2CCC(N(C)C(=O)c3ccc4c(c3)[C@H](NC(=O)c3c(F)cccc3Cl)CC4)CC2)nc(C)n1 [Example H-163, (3R)-3-[(2-Chloro-6-fluoro-benzoyl)amino]-N-[1-(2,6-dimethyl-pyrimidin-4-yl)-piperidin-4-yl]-N-methyl-2,3-dihydro-1H-indene-5-carboxylic acid amide]	104	99
CN(C(=O)c1ccc2c(c1)[C@H](NC(=O)c1cccc(F)c1Cl)CC2)C1CCN(c2ccncn2)CC1 [Example H-164, (3R)-3-[(2-Chloro-3-fluoro-benzoyl)amino]-N-methyl-N-(1-pyrimidin-4-yl-piperidin-4-yl)-2,3-dihydro-1H-indene-5-carboxylic acid amide]	105	100
Cc1cc(N2CCC(N(C)C(=O)c3ccc4c(c3)[C@H](NC(=O)c3ccc(F)cc3Cl)CC4)CC2)nc(C)n1 [Example H-165, (3R)-3-[(2-Chloro-4-fluoro-benzoyl)amino]-N-[1-(2,6-dimethyl-pyrimidin-4-yl)-piperidin-4-yl]-N-methyl-2,3-dihydro-1H-indene-5-carboxylic acid amide]	105	100
